Values quoted from earlier work as cited in patent US20190055521A1, “Methods Of Propagating Rhinovirus C In Previously Unsusceptible Cell Lines” (Wisconsin Alumni Research Foundation, priority 2014, published 2019).
Like-named read-outs stand apart in the source and are kept apart here.

How the values were obtained:
RV-B [1] = conditions: unmodified HeLa cells; previously documented
RV-A [2] = conditions: unmodified HeLa cells; previously documented
RV-A [3] = conditions: unmodified HeLa cells; drug added to cells before infection; previously documented
RV-B [4] = conditions: unmodified HeLa cells; drug added to cells before infection; previously documented

Structure (SMILES)	inhibition of RV-B (RV-B [1])	inhibition of RV-A (RV-A [2])	inhibition of RV-A (RV-A [3])	inhibition of RV-B (RV-B [4])
Cc1cc(CCCOc2c(C)cc(-c3noc(C(F)(F)F)n3)cc2C)on1 [Pleconaril]	inhibition	inhibition		
CCOC(=O)/C=C/[C@H](C[C@@H]1CCNC1=O)NC(=O)[C@@H](CC(=O)[C@@H](NC(=O)c1cc(C)on1)C(C)C)Cc1ccc(F)cc1 [Rupintrivir]			inhibition	inhibition
